Measured values as given in patent US12421193B2, “GPR52 modulators and methods of use” (Neurocrine Biosciences, Inc., priority 2020, dated 2025).

Biological target: T1, recombinant human GPR52 (Homo sapiens, UniProt Q9Y2T5)
T1 construct: expressed in transfected cells
Experiment: TR-FRET cAMP assay (LANCE Ultra cAMP Kit), GPR52 activity
Assay type: cell-based
Conditions: Flp-In-CHO cells stably expressing recombinant human GPR52; cAMP production, normalized to the positive control
Description: TR-FRET cAMP assays were performed using commercially available assay kits (LANCE™ Ultra cAMP Kit). Controls and compounds were solubilized in DMSO using ½ log dilution to generate duplicate 10-point dose response curves in 384-well polypropylene compound plates. Sixty nanoliters of the diluted compounds were transferred into 384-well NBS assay plates and further diluted to 1× with the addition of 2000 cells per well. Flp-In™—CHO cells that stably express recombinant human GPR52.
Cells were harvested with cell stripper and resuspended in Stimulation Buffer (5 mM HEPES, 0.1% bovine serum albumin (BSA), 0.5 mM IBMX, pH 7.4). After thirty minutes incubation at room temperature, detection reagents were added to each well. Plates were then incubated for 30 minutes at room temperature. The LANCE™ Ultra cAMP assay uses time-resolved fluorescence resonance energy transfer (TR-FRET) to detect cAMVP production; this signal was quantified using a Pherastar multi-mode plate reader.
Dose-response curves were generated from the fluorescence counts normalized to the positive control. E EC50 values were obtained using a nonlinear regression curve-fitting program.

T1 sequence (Q9Y2T5 whole entry): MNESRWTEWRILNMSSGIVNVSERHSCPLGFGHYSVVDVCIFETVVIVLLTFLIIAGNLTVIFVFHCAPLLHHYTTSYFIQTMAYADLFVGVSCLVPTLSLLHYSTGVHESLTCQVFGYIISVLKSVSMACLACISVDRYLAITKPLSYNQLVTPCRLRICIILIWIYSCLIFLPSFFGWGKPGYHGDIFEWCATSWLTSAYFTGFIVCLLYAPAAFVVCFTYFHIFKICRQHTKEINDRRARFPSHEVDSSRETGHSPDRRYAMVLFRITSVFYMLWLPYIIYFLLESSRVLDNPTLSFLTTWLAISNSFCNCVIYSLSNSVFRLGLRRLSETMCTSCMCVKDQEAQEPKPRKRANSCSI

SMILES | EC50
Cc1cc(-c2cc(COc3cc(C(F)(F)F)nn3C)ccn2)ccc1C(N)=O [Example 66, 4-[4-({[1-methyl-3-(trifluoromethyl)-1H-pyrazol-5-yl]oxy}methyl)pyridin-2-yl]2-methylbenzamide] | 25 to 100 nM
Cc1cc(-c2cc(COc3cccc(C(F)F)c3)ccn2)ccc1C(N)=O [Example 67, 4-{4-[3-(difluoromethyl)phenoxymethyl]pyridin-2-yl}-2-methylbenzamide] | < 25 nM
Cc1cc(-c2cc(COc3ccc(C(C)(C)O)cc3)ccn2)ccc1C(N)=O [Example 69, 4-{4-[4-(2-hydroxypropan-2-yl)phenoxymethyl]pyridin-2-yl}-2-methylbenzamide] | 25 to 100 nM
Cc1cc(-c2cc(COc3cc(F)cc(C4CC4)c3)ccn2)ccc1C(N)=O [Example 70, 4-[4-(3-cyclopropyl-5-fluorophenoxymethyl)pyridin-2-yl]-2-methylbenzamide] | < 25 nM
COc1cncc(OCc2ccnc(-c3ccc(C(N)=O)c(C)c3)c2)c1 [Example 74, 4-(4-{[(5-methoxypyridin-3-yl)oxy]methyl}pyridin-2-yl)-2-methylbenzamide] | 101 to 1000 nM
NC(=O)c1ccc(-c2cc(COc3ccc(C(F)(F)F)cc3)ccn2)cc1Cl [Example 76, 4-{4-[4-(trifluoromethyl)phenoxymethyl]pyridin-2-yl}2-chlorobenzamide] | < 25 nM
NC(=O)c1ccc(-c2cc(COc3ccc(C(F)(F)F)cc3)ccn2)cc1C(F)(F)F [Example 78, 4-{4-[4-(trifluoromethyl)phenoxymethyl]pyridin-2-yl}-2-(trifluoromethyl)benzamide] | 25 to 100 nM

Other lines, results leading:

EC50 | SMILES
101 to 1000 nM | Cc1cc(-c2cc(COc3ccc4c(c3)OCC4)ccn2)ccc1C(N)=O [Example 63, 4-{4-[(2,3-dihydro-1-benzofuran-6-yloxy)methyl]pyridin-2-yl}-2-methylbenzamide]
< 25 nM | Cc1cc(-c2cc(COc3ccc4c(c3)CCO4)ccn2)ccc1C(N)=O [Example 64, 4-{4-[(2,3-dihydro-1-benzofuran-5-yloxy)methyl]pyridin-2-yl}-2-methylbenzamide]
< 25 nM | Cc1cc(-c2cc(COc3ccc(C(F)(F)F)c(F)c3)ccn2)ccc1C(N)=O [Example 65, 4-{4-[3-fluoro-4-(trifluoromethyl)phenoxymethyl]pyridin-2-yl}-2-methylbenzamide]
< 25 nM | Cc1cc(-c2cc(COc3ccc(C4CC4)c(F)c3)ccn2)ccc1C(N)=O [Example 71, 4-[4-(4-cyclopropyl-3-fluorophenoxymethyl)pyridin-2-yl]-2-methylbenzamide]
101 to 1000 nM | Cc1cc(-c2cc(COc3ccc4nn(C)cc4c3)ccn2)ccc1C(N)=O [Example 72, 4-(4-{[(2-methyl-2H-indazol-5-yl)oxy]methyl}pyridin-2-yl)-2-methyl benzamide]
101 to 1000 nM | Cc1cc(-c2cc(COc3cccc(CC#N)c3)ccn2)ccc1C(N)=O [Example 73, 4-{4-[3-(cyanomethyl)phenoxymethyl]pyridin-2-yl}-2-methylbenzamide]
101 to 1000 nM | Cc1cc(-c2cc(COc3cncc(C#N)c3)ccn2)ccc1C(N)=O [Example 75, 4-(4-{[(5-cyanopyridin-3-yl)oxy]methyl}pyridin-2-yl)-2-methylbenzamide]
25 to 100 nM | N#Cc1ccc(OCc2ccnc(-c3ccc(C(N)=O)c(Cl)c3)c2)cc1F [Example 77, 4-[4-(4-cyano-3-fluorophenoxymethyl)pyridin-2-yl]-2-chlorobenzamide]
101 to 1000 nM | Cc1cc(-c2cc(COc3ccc(C#N)c(F)c3)ccn2)ccc1C(=O)NCCO [Example 79, 4-[4-(4-cyano-3-fluorophenoxymethyl)pyridin-2-yl]-N-(2-hydroxyethyl)-2-methylbenzamide]
< 25 nM | Cc1cc(-c2cc(COc3ccc(C#N)c(F)c3)ccn2)ccc1C(=O)NCCN(C)C [Example 80, 4-[4-(4-cyano-3-fluorophenoxymethyl)pyridin-2-yl]-N-[2-(dimethylamino)ethyl]-2-methylbenzamide]
